Measurements published in patent US20100151062A1, “Determining nutrients for animals through gene expression” (priority 2008, published 2010).

System: cartilage cells of individual affected unhealthy dogs
Assay: In vitro culture of cartilage cells of affected dogs with curcumin or andrographolide, microarray
Assay type: cell-based, dog
Details: mean; for Fold change of gene expression, ACTB / Fold change of gene expression, ACTR3 / Fold change of gene expression, ADK / Fold change of gene expression, ANKRD10 / Fold change of gene expression, CAV1 / Fold change of gene expression, CDH11 / Fold change of gene expression, COL3A1 / Fold change of gene expression, COX1 / Fold change of gene expression, COX2 / Fold change of gene expression, IGFBP7 / Fold change of gene expression, IL2 / Fold change of gene expression, MMP2 / Fold change of gene expression, NOS2 / Fold change of gene expression, PTGS-2 / Fold change of gene expression, SPARC / Fold change of gene expression, STMN1 / Fold change of gene expression, TIMP1 / Fold change of gene expression, TIMP2 / Fold change of gene expression, TNF-a / Fold change of gene expression, TUBA / Fold change of gene expression, TUBB: 60 mg/l vs 0, 6 hours, cartilage cells of affected dogs; for Fold change of gene expression, ACTB / Net effect of the NBC on fold change, ACTB: gene ACTB; for Net effect of the NBC on fold change, ACTB / Net effect of the NBC on fold change, ACTR3 / Net effect of the NBC on fold change, ADK / Net effect of the NBC on fold change, ANKRD10 / Net effect of the NBC on fold change, CAV1 / Net effect of the NBC on fold change, CDH11 / Net effect of the NBC on fold change, COL3A1 / Net effect of the NBC on fold change, COX1 / Net effect of the NBC on fold change, COX2 / Net effect of the NBC on fold change, IGFBP7 / Net effect of the NBC on fold change, IL2 / Net effect of the NBC on fold change, MMP2 / Net effect of the NBC on fold change, NOS2 / Net effect of the NBC on fold change, PTGS-2 / Net effect of the NBC on fold change, SPARC / Net effect of the NBC on fold change, STMN1 / Net effect of the NBC on fold change, TIMP1 / Net effect of the NBC on fold change, TIMP2 / Net effect of the NBC on fold change, TNF-a / Net effect of the NBC on fold change, TUBA / Net effect of the NBC on fold change, TUBB: 60 mg/l, 6 hours; for Fold change of gene expression, ACTR3 / Net effect of the NBC on fold change, ACTR3: gene ACTR3; for Fold change of gene expression, ADK / Net effect of the NBC on fold change, ADK: gene ADK; for Fold change of gene expression, ANKRD10 / Net effect of the NBC on fold change, ANKRD10: gene ANKRD10; for Fold change of gene expression, CAV1 / Net effect of the NBC on fold change, CAV1: gene CAV1; for Fold change of gene expression, CDH11 / Net effect of the NBC on fold change, CDH11: gene CDH11; for Fold change of gene expression, COL3A1 / Net effect of the NBC on fold change, COL3A1: gene COL3A1; for Fold change of gene expression, COX1 / Net effect of the NBC on fold change, COX1: gene COX1; for Fold change of gene expression, COX2 / Net effect of the NBC on fold change, COX2: gene COX2; for Fold change of gene expression, IGFBP7 / Net effect of the NBC on fold change, IGFBP7: gene IGFBP7; for Fold change of gene expression, IL2 / Net effect of the NBC on fold change, IL2: gene IL2; for Fold change of gene expression, MMP2 / Net effect of the NBC on fold change, MMP2: gene MMP2; for Fold change of gene expression, NOS2 / Net effect of the NBC on fold change, NOS2: gene NOS2; for Fold change of gene expression, PTGS-2 / Net effect of the NBC on fold change, PTGS-2: gene PTGS-2; for Fold change of gene expression, SPARC / Net effect of the NBC on fold change, SPARC: gene SPARC; for Fold change of gene expression, STMN1 / Net effect of the NBC on fold change, STMN1: gene STMN1; for Fold change of gene expression, TIMP1 / Net effect of the NBC on fold change, TIMP1: gene TIMP1; for Fold change of gene expression, TIMP2 / Net effect of the NBC on fold change, TIMP2: gene TIMP2; for Fold change of gene expression, TNF-a / Net effect of the NBC on fold change, TNF-a: gene TNF-a; for Fold change of gene expression, TUBA / Net effect of the NBC on fold change, TUBA: gene TUBA; for Fold change of gene expression, TUBB / Net effect of the NBC on fold change, TUBB: gene TUBB
Method: Total RNA of cells was extracted using phenol/guanidine HCl reagents (Trizol, Invitrogen). RNA quality integrity was analysed using the Agilent 2100 Bioanalyser (Agilent Technologies) of the sample. The samples determined to have no, or minimal, loss of integrity and thus were considered suitable for use in experiments. mRNA was amplified for each sample, starting with 500 ng total RNA using a commercially available kit (Ambion T7 MEGAscript high yield transcription kit, Ambion). The mRNA was quantified using a spectrophotometer. mRNA was directly reverse transcribed to cDNA from 25 μg of total RNA using the Superscript indirect cDNA labeling Core kit (Invitrogen, Milan, Italy).
Two micrograms of cDNA were labelled with Cyanine-3dCTP (Cy3) or Cyanine-5dCTP (Cy5) fluorochromes using the cDNA labeling purification module kit (Invitrogen, Milan, Italy). Samples were hybridised to a canine specific, whole genome 44k spot 60mer oligonucleotide (Agilent Technologies). The labelled cDNA was appropriately coupled and used for competitive hybridization on the same microarray at 42° C. for 16 h. Fluorescence incorporation was determined using a spectrophotometer. The relative intensity of labelled cDNA in was acquired with ScanArray LITE scanner (PerkinElmer Life Sciences, Inc).
Expression data were then exported into Excel 2007 and processed with SAM software; comparison between groups was achieved using paired student's t tests. […] Correction for multiple hypothesis testing was performed using the false discovery rate (FDR).
Searching within the nutrient data set for biologically active nutrients with anti-arthritic and anti-inflammatory properties identified curcumin and androgropholide as the appropriated compositions. The cartilage cells of individual affected unhealthy dogs were cultured in vitro with 0, or 60 mg/l of curcumin or androgropholide for 6 hours. At the end of the incubation, these cartilage cells from individual affected dogs were washed and used for RNA extraction. For the microarray analysis, co-hybridisation of the RNA from 0 and 60 mg/l was conducted, using the material and the methods described previously.

## C=C1CC[C@@H]2[C@](C)(CO)[C@H](O)CC[C@@]2(C)[C@@H]1C/C=C1/C(=O)OC[C@H]1O [Androgrpholide]
  Fold change of gene expression, ACTB: −1.0
  Net effect of the NBC on fold change, ACTB: 2.8
  Fold change of gene expression, ACTR3: 1.0
  Net effect of the NBC on fold change, ACTR3: 1.3
  Fold change of gene expression, ADK: 0.0
  Net effect of the NBC on fold change, ADK: 3.6
  Fold change of gene expression, ANKRD10: 0.0
  Net effect of the NBC on fold change, ANKRD10: 5.2
  Fold change of gene expression, CAV1: 0.0
  Net effect of the NBC on fold change, CAV1: 4.8
  Fold change of gene expression, CDH11: −1.0
  Net effect of the NBC on fold change, CDH11: 5.9
  Fold change of gene expression, COL3A1: −2.0
  Net effect of the NBC on fold change, COL3A1: 7.5
  Fold change of gene expression, COX1: 0.0
  Net effect of the NBC on fold change, COX1: 0.8
  Fold change of gene expression, COX2: 0.0
  Net effect of the NBC on fold change, COX2: 23.0
  Fold change of gene expression, IGFBP7: −2.0
  Net effect of the NBC on fold change, IGFBP7: 1.7
  Fold change of gene expression, IL2: −6.0
  Net effect of the NBC on fold change, IL2: −3.0
  Fold change of gene expression, MMP2: −5.0
  Net effect of the NBC on fold change, MMP2: 5.0
  Fold change of gene expression, NOS2: −6.0
  Net effect of the NBC on fold change, NOS2: −5.8
  Fold change of gene expression, PTGS-2: −5.0
  Net effect of the NBC on fold change, PTGS-2: −3.8
  Fold change of gene expression, SPARC: 0.0
  Net effect of the NBC on fold change, SPARC: 6.3
  Fold change of gene expression, STMN1: 0.0
  Net effect of the NBC on fold change, STMN1: 6.2
  Fold change of gene expression, TIMP1: 0.0
  Net effect of the NBC on fold change, TIMP1: 6.2
  Fold change of gene expression, TIMP2: 0.0
  Net effect of the NBC on fold change, TIMP2: 2.0
  Fold change of gene expression, TNF-a: −8.0
  Net effect of the NBC on fold change, TNF-a: 2.0
  Fold change of gene expression, TUBA: 0.0
  Net effect of the NBC on fold change, TUBA: 4.7
  Fold change of gene expression, TUBB: 0.0
  Net effect of the NBC on fold change, TUBB: 4.8

## COc1cc(/C=C/C(=O)CC(=O)/C=C/c2ccc(O)c(OC)c2)ccc1O [curcumin]
  Fold change of gene expression, ACTB: −5.0
  Net effect of the NBC on fold change, ACTB: −1.2
  Fold change of gene expression, ACTR3: −1.0
  Net effect of the NBC on fold change, ACTR3: −4.0
  Fold change of gene expression, ADK: −4.3
  Net effect of the NBC on fold change, ADK: −1.4
  Fold change of gene expression, ANKRD10: −7.0
  Net effect of the NBC on fold change, ANKRD10: −1.8
  Fold change of gene expression, CAV1: −3.0
  Net effect of the NBC on fold change, CAV1: 1.8
  Fold change of gene expression, CDH11: −6.0
  Net effect of the NBC on fold change, CDH11: 0.9
  Fold change of gene expression, COL3A1: −6.0
  Net effect of the NBC on fold change, COL3A1: 3.5
  Fold change of gene expression, COX1: −1.0
  Net effect of the NBC on fold change, COX1: −0.2
  Fold change of gene expression, COX2: −15.0
  Net effect of the NBC on fold change, COX2: 8.0
  Fold change of gene expression, IGFBP7: −1.5
  Net effect of the NBC on fold change, IGFBP7: 2.2
  Fold change of gene expression, IL2: −4.0
  Net effect of the NBC on fold change, IL2: −1.0
  Fold change of gene expression, MMP2: −6.5
  Net effect of the NBC on fold change, MMP2: 3.5
  Fold change of gene expression, NOS2: −0.5
  Net effect of the NBC on fold change, NOS2: −0.3
  Fold change of gene expression, PTGS-2: −3.0
  Net effect of the NBC on fold change, PTGS-2: −1.8
  Fold change of gene expression, SPARC: −4.0
  Net effect of the NBC on fold change, SPARC: 2.3
  Fold change of gene expression, STMN1: −5.0
  Net effect of the NBC on fold change, STMN1: 1.2
  Fold change of gene expression, TIMP1: −5.0
  Net effect of the NBC on fold change, TIMP1: 1.2
  Fold change of gene expression, TIMP2: −2.0
  Net effect of the NBC on fold change, TIMP2: 0.0
  Fold change of gene expression, TNF-a: −14.5
  Net effect of the NBC on fold change, TNF-a: −4.5
  Fold change of gene expression, TUBA: −2.0
  Net effect of the NBC on fold change, TUBA: 2.7
  Fold change of gene expression, TUBB: −5.0
  Net effect of the NBC on fold change, TUBB: −0.2
